Earlier results, collected in article PMC10215804, “Exploring Alternative Pathways to Target Bacterial Type II Topoisomerases Using NBTI Antibacterials: Beyond Halogen-Bonding Interactions” (Antibiotics, 2023).
Values after ≈ are worked out from the molar mass of the structure shown.

What was measured:
E. faecalis RDK 057 = settings: cited from earlier work
A. baumannii = test system: A. baumannii; set-up: method as in PMID 35970069; settings: cited from earlier work
S. aureus DNA gyrase = target: T1, S. aureus DNA gyrase (Staphylococcus aureus, UniProt P20831); settings: supercoiling inhibition; cited from earlier work
T1 construct: purchased Inspiralis (Norwich, UK)
T1 sequence (P20831 whole entry): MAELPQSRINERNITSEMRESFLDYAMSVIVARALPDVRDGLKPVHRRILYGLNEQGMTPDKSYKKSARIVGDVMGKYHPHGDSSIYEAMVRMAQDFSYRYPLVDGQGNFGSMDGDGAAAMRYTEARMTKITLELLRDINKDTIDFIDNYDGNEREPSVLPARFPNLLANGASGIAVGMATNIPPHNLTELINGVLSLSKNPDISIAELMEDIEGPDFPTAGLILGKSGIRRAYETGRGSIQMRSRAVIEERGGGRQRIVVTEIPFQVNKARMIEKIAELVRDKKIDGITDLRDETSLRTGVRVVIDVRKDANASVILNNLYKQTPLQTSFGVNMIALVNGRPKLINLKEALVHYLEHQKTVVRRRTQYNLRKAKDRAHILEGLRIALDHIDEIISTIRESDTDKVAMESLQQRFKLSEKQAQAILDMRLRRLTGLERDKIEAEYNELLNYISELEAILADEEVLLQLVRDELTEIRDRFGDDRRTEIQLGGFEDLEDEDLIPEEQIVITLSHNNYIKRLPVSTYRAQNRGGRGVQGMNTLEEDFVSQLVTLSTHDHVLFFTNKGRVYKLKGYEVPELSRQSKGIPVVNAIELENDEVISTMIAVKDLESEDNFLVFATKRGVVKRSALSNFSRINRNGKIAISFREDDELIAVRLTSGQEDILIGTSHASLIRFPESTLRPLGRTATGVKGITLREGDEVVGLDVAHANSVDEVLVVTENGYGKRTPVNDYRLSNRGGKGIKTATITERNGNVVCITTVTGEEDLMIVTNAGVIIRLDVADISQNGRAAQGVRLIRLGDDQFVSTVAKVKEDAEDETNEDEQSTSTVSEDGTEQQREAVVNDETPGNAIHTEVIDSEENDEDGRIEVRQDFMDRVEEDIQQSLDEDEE
T1 sequence (P0A0K8 whole entry partner): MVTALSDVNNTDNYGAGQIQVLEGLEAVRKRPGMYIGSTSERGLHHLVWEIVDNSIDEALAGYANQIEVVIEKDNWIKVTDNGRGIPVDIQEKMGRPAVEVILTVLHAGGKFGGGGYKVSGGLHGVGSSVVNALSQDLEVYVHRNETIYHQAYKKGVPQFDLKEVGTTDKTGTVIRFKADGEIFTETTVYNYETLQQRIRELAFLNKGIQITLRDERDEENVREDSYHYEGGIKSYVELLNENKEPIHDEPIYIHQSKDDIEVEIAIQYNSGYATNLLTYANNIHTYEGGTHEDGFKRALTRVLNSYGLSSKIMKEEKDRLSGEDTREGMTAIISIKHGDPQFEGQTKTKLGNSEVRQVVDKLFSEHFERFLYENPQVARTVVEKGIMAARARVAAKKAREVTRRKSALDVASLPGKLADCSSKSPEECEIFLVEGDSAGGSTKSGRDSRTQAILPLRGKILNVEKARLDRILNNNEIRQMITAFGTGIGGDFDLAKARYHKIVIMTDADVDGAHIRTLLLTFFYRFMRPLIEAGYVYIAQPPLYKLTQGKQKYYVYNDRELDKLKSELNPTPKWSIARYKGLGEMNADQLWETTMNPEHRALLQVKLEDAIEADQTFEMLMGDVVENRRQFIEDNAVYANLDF

E. coli D22 = settings: lpxC mutation; cited from earlier work
VRE = settings: cited from earlier work
MRSA(QA-12.1) = test system: MRSA(QA-12.1); set-up: method as in PMID 35970069; settings: cited from earlier work
S. aureus (ATCC 29213) = settings: cited from earlier work
E. coli topoIV = target: T2, E. coli topoIV (Escherichia coli, UniProt P0AFI2); settings: relaxation inhibition; cited from earlier work
T2 construct: purchased Inspiralis (Norwich, UK)
T2 sequence (P20083 whole entry): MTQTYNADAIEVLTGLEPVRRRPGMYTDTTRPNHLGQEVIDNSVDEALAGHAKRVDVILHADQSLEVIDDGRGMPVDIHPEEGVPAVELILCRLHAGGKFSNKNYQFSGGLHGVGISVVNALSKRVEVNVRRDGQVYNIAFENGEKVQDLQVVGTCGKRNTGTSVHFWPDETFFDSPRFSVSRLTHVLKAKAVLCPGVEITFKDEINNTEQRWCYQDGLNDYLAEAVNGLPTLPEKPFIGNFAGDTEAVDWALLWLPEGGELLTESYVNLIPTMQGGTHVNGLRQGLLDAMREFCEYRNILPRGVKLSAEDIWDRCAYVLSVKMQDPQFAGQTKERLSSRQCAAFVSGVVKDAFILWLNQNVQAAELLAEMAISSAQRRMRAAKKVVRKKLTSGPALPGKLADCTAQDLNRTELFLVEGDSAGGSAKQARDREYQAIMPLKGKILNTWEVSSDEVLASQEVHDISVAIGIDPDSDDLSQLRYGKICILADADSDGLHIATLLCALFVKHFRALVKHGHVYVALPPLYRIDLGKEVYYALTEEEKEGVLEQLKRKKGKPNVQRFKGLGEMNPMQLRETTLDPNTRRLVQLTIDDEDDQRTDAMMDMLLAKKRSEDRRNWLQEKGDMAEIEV
T2 sequence (P0AFI2 whole entry): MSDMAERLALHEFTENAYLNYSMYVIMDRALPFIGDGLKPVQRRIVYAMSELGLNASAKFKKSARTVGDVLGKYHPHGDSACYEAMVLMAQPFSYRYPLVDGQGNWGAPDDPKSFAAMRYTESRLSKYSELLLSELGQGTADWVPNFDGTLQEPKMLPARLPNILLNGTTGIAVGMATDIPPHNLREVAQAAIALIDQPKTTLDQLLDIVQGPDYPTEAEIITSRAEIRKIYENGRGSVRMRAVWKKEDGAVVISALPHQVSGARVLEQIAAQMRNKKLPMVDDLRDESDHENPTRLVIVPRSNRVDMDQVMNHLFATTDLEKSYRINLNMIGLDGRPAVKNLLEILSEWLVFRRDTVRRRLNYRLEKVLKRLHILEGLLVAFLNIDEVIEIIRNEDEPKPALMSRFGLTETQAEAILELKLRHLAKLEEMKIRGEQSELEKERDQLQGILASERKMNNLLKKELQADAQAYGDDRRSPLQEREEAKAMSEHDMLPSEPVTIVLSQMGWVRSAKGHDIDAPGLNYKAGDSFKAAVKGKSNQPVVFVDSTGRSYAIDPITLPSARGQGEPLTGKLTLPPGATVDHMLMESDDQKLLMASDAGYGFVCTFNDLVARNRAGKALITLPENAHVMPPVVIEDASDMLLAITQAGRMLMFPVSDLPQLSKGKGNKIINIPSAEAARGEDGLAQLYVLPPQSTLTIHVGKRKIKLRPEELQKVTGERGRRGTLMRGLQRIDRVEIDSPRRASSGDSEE

MRSA (QA-11.2) = test system: MRSA (QA-11.2); set-up: method as in PMID 35970069; settings: cited from earlier work
E. coli (ATCC 25922) = settings: cited from earlier work
E. coli DNA gyrase = target: T3, E. coli DNA gyrase (Escherichia coli, UniProt P0AES4); settings: supercoiling inhibition; cited from earlier work
T3 construct: purchased Inspiralis (Norwich, UK)

MRSA (QA-11.7) = settings: cited from earlier work
S. aureus topoIV = target: T4, S. aureus topoIV (Staphylococcus aureus, UniProt P0C1U9); settings: relaxation inhibition; cited from earlier work
T4 construct: purchased Inspiralis (Norwich, UK)
T4 sequence (P0C1U9 whole entry): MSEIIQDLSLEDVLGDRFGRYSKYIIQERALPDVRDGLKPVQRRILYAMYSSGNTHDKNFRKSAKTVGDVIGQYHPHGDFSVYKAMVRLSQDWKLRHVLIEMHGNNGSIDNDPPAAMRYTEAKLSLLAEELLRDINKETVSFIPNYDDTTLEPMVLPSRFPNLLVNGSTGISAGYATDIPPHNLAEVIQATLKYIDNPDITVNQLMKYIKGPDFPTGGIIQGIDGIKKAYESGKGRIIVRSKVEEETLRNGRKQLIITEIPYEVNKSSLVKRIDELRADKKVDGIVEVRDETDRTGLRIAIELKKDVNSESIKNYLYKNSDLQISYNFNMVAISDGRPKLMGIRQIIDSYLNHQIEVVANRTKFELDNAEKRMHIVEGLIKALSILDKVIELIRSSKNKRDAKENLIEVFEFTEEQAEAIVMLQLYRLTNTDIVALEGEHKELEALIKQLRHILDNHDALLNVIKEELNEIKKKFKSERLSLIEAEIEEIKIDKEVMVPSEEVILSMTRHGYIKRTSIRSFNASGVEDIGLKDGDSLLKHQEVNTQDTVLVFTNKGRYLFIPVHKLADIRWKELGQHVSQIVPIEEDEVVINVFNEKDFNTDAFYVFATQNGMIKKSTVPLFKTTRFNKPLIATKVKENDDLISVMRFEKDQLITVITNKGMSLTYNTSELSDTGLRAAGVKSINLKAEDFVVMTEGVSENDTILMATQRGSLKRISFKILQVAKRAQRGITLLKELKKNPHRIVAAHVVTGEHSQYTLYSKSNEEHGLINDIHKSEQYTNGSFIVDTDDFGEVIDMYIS
T4 sequence (P0C1S7 whole entry partner): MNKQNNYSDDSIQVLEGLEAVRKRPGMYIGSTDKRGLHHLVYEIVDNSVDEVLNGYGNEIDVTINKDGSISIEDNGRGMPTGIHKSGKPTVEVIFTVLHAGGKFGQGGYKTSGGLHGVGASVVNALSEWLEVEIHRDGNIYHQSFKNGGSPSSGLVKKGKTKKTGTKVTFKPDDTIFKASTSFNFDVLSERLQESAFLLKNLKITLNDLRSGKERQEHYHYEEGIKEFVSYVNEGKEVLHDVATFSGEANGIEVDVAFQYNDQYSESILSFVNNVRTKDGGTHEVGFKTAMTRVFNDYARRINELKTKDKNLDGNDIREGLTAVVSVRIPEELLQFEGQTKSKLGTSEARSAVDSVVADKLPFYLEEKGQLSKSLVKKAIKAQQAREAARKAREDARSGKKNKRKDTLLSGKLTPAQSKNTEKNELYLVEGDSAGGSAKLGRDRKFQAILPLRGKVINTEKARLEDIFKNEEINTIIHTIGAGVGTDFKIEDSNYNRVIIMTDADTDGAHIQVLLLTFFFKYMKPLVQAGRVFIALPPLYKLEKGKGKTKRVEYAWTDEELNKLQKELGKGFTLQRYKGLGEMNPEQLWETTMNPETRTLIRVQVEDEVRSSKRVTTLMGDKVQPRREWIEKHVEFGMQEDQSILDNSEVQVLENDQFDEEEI

human topoisomerase IIα = target: T5, human topoisomerase IIα (Homo sapiens, UniProt P11388); settings: residual activity at 100 µM compound; cited from earlier work
T5 construct: purchased Inspiralis (Norwich, UK)

P. aeruginosa RDK 184 = settings: cited from earlier work
K. pneumoniae = test system: K. pneumoniae; set-up: method as in PMID 35970069; settings: cited from earlier work
E. coli N43 (CGSC# 5583) = settings: AcrA knockout; cited from earlier work
E. coli ESBL QA-11.3 = test system: E. coli ESBL QA-11.3; set-up: method as in PMID 35970069; settings: cited from earlier work

COc1ccc2nccc(OCC3CCC(NCc4ccc(Br)cc4)CC3)c2n1 (stereo not drawn) [Compound 2]
MIC E. faecalis RDK 057 (E. faecalis RDK 057): 1 µg/mL (≈ 2.19 µM)
MIC A. baumannii (A. baumannii): 128 µg/mL (≈ 280 µM)
IC50 (S. aureus DNA gyrase): 372 ± 2 nM
MIC E. coli D22 (E. coli D22): 8 µg/mL (≈ 17.5 µM)
MIC VRE (VRE): 1 µg/mL (≈ 2.19 µM)
MIC MRSA(QA-12.1) (MRSA(QA-12.1)): 0.25 µg/mL (≈ 0.548 µM)
MIC S. aureus (ATCC 29213) (S. aureus (ATCC 29213)): 0.125 µg/mL (≈ 0.274 µM)
IC50 (E. coli topoIV): 495 ± 184 nM
MIC MRSA (QA-11.2) (MRSA (QA-11.2)): 0.5 µg/mL (≈ 1.1 µM)
MIC E. coli (ATCC 25922) (E. coli (ATCC 25922)): 64 µg/mL (≈ 140 µM)
IC50 (E. coli DNA gyrase): 4800 ± 774 nM
MIC MRSA (QA-11.7) (MRSA (QA-11.7)): 0.25 µg/mL (≈ 0.548 µM)
IC50 (S. aureus topoIV): > 100000 nM
Human TopoIIα (% RA at 100 µM) (human topoisomerase IIα): 106 ± 3%
MIC P. aeruginosa RDK 184 (P. aeruginosa RDK 184): 32 µg/mL (≈ 70.1 µM)
MIC K. pneumoniae (K. pneumoniae): 128 µg/mL (≈ 280 µM)
MIC E. coli N43 (CGSC# 5583) (E. coli N43 (CGSC# 5583)): 1 µg/mL (≈ 2.19 µM)
MIC E. coli ESBL QA-11.3 (E. coli ESBL QA-11.3): 128 µg/mL (≈ 280 µM)

COc1ccc2nccc(OC[C@H]3CC[C@H](NCc4ccc(Br)cc4)CO3)c2n1 [Compound 3]
MIC E. faecalis RDK 057 (E. faecalis RDK 057): 2 µg/mL (≈ 4.36 µM)
MIC A. baumannii (A. baumannii): >128 µg/mL
IC50 (S. aureus DNA gyrase): 294 ± 100 nM
MIC E. coli D22 (E. coli D22): 8 µg/mL (≈ 17.5 µM)
MIC VRE (VRE): 1 µg/mL (≈ 2.18 µM)
MIC MRSA(QA-12.1) (MRSA(QA-12.1)): 0.125 µg/mL (≈ 0.273 µM)
MIC S. aureus (ATCC 29213) (S. aureus (ATCC 29213)): 0.125 µg/mL (≈ 0.273 µM)
IC50 (E. coli topoIV): 131 ± 40 nM
MIC MRSA (QA-11.2) (MRSA (QA-11.2)): 0.25 µg/mL (≈ 0.545 µM)
MIC E. coli (ATCC 25922) (E. coli (ATCC 25922)): 128 µg/mL (≈ 279 µM)
IC50 (E. coli DNA gyrase): 7740 ± 2310 nM
MIC MRSA (QA-11.7) (MRSA (QA-11.7)): 0.5 µg/mL (≈ 1.09 µM)
IC50 (S. aureus topoIV): > 100000 nM
Human TopoIIα (% RA at 100 µM) (human topoisomerase IIα): 105 ± 1%
MIC P. aeruginosa RDK 184 (P. aeruginosa RDK 184): 128 µg/mL (≈ 279 µM)
MIC K. pneumoniae (K. pneumoniae): 128 µg/mL (≈ 279 µM)
MIC E. coli N43 (CGSC# 5583) (E. coli N43 (CGSC# 5583)): 8 µg/mL (≈ 17.5 µM)
MIC E. coli ESBL QA-11.3 (E. coli ESBL QA-11.3): >128 µg/mL
